ChEMBL document CHEMBL1140240, “Glutamic acid analogues as potent dipeptidyl peptidase IV and 8 inhibitors” (Bioorg Med Chem Lett, 2005)

target: Dipeptidyl peptidase 4 (Homo sapiens, UniProt P27487)
Sequence (P27487 whole entry): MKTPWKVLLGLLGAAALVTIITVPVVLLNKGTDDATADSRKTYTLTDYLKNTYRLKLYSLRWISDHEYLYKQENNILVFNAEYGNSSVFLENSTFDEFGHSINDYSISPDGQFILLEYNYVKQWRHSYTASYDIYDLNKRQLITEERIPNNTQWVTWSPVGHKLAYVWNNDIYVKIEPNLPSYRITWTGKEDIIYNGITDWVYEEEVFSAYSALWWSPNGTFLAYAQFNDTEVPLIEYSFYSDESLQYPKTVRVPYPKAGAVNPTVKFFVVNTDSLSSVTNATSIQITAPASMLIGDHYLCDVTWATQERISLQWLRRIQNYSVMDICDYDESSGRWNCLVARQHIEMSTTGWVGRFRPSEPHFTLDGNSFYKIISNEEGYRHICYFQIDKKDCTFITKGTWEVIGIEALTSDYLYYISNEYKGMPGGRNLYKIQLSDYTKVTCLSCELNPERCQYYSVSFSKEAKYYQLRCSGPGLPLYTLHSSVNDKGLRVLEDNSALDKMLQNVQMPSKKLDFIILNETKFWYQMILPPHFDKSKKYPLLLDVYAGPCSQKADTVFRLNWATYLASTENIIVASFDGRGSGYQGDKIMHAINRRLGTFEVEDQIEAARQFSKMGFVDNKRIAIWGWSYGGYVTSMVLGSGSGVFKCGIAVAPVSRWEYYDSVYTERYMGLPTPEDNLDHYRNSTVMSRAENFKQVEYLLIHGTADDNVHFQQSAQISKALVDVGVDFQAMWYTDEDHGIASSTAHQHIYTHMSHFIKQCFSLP

| IC50 [nM] | Compound |
| --- | --- |
| 140 | CCC(NC(=O)C[C@H](N)C(=O)N1CCC[C@H]1C#N)c1ccccc1 (stereo not given in full) |
| 212 | CC(C)C(NC(=O)C[C@H](N)C(=O)N1CCC[C@H]1C#N)c1ccccc1 (stereo not given in full) |
| 47 | COc1cc2c(cc1OC)C(C(C)C)N(C(=O)C[C@H](N)C(=O)N1CCC[C@H]1C#N)CC2 (stereo not given in full) |
| 97 | COc1cc2c(cc1OC)C(Cc1ccccc1)N(C(=O)C[C@H](N)C(=O)N1CCC[C@H]1C#N)CC2 (stereo not given in full) |
| 116 | COc1ccc(CCNC(=O)C[C@H](N)C(=O)N2CCC[C@H]2C#N)cc1OC |
| 252 | N#C[C@@H]1CCCN1C(=O)[C@@H](N)CC(=O)NC(Cc1ccccc1)c1ccccc1 (stereo not given in full) |
| 87 | N#Cc1ccc[n+](N2CCN(C(=O)C[C@H](N)C(=O)N3CCC[C@H]3C#N)CC2)c1 |
| 238 | N#C[C@@H]1CCCN1C(=O)[C@@H](N)CC(=O)NCc1ccccc1 |
| 72 | COc1ccc2c(c1)CCN(C(=O)C[C@H](N)C(=O)N1CCC[C@H]1C#N)C2C(C)(C)C (stereo not given in full) |
| 99 | N#C[C@@H]1CCCN1C(=O)[C@@H](N)CC(=O)N1CCc2ccccc2C1 |
| 195 | COc1ccc2c(c1)C(C(C)(C)C)N(C(=O)C[C@H](N)C(=O)N1CCC[C@H]1C#N)CC2 (stereo not given in full) |
| 227 | N#C[C@@H]1CCCN1C(=O)[C@@H](N)CC(=O)N1CCN(C(c2ccc(F)cc2)c2ccc(F)cc2)CC1 |
| 63 | COc1cc2c(cc1OC)CN(C(=O)C[C@H](N)C(=O)N1CCC[C@H]1C#N)CC2 |
| 305 | CC(C)C(Cc1ccccc1)NC(=O)C[C@H](N)C(=O)N1CCC[C@H]1C#N (stereo not given in full) |
| 182 | COCC(Cc1ccccc1)NC(=O)C[C@H](N)C(=O)N1CCC[C@H]1C#N (stereo not given in full) |
| 45 | COc1cc2c(cc1OC)C(CCO)N(C(=O)C[C@H](N)C(=O)N1CCC[C@H]1C#N)CC2 (stereo not given in full) |
| 73 | COc1cc2c(cc1OC)C(C(C)(C)C)N(C(=O)C[C@H](N)C(=O)N1CCC[C@H]1C#N)CC2 (stereo not given in full) |
| 251 | CC(C)(C)C(NC(=O)C[C@H](N)C(=O)N1CCC[C@H]1C#N)c1ccccc1 (stereo not given in full) |
| 123 | N#C[C@@H]1CCCN1C(=O)[C@@H](N)CC(=O)N1CCN(C(=O)c2ccccc2)CC1 |

target: Dipeptidyl peptidase 2 (Homo sapiens, UniProt Q9UHL4); test: Inhibitory concentration against DPP-II [Quiescent cell proline dipeptidase] or DPP-VII

| IC50 [nM] | Compound |
| --- | --- |
| 31300 | COc1cc2c(cc1OC)CN(C(=O)C[C@H](N)C(=O)N1CCC[C@H]1C#N)CC2 |
